ChEMBL document CHEMBL3988442, “University of Dundee, Small-Polar-MMV Screening Library” (2021)
Values joined by “and” are separate entries in the source; they are usually repeats but may differ in a detail not shown here. Equal entries are not always repeated.

molecular target: Polyketide synthase Pks13 (Mycobacterium tuberculosis (strain ATCC 25618 / H37Rv), UniProt I6X8D2); assay: Mycobacterium tuberculosis Polyketide synthase 13 Thioesterase (PKS13); assay type: functional
Sequence (I6X8D2 whole entry): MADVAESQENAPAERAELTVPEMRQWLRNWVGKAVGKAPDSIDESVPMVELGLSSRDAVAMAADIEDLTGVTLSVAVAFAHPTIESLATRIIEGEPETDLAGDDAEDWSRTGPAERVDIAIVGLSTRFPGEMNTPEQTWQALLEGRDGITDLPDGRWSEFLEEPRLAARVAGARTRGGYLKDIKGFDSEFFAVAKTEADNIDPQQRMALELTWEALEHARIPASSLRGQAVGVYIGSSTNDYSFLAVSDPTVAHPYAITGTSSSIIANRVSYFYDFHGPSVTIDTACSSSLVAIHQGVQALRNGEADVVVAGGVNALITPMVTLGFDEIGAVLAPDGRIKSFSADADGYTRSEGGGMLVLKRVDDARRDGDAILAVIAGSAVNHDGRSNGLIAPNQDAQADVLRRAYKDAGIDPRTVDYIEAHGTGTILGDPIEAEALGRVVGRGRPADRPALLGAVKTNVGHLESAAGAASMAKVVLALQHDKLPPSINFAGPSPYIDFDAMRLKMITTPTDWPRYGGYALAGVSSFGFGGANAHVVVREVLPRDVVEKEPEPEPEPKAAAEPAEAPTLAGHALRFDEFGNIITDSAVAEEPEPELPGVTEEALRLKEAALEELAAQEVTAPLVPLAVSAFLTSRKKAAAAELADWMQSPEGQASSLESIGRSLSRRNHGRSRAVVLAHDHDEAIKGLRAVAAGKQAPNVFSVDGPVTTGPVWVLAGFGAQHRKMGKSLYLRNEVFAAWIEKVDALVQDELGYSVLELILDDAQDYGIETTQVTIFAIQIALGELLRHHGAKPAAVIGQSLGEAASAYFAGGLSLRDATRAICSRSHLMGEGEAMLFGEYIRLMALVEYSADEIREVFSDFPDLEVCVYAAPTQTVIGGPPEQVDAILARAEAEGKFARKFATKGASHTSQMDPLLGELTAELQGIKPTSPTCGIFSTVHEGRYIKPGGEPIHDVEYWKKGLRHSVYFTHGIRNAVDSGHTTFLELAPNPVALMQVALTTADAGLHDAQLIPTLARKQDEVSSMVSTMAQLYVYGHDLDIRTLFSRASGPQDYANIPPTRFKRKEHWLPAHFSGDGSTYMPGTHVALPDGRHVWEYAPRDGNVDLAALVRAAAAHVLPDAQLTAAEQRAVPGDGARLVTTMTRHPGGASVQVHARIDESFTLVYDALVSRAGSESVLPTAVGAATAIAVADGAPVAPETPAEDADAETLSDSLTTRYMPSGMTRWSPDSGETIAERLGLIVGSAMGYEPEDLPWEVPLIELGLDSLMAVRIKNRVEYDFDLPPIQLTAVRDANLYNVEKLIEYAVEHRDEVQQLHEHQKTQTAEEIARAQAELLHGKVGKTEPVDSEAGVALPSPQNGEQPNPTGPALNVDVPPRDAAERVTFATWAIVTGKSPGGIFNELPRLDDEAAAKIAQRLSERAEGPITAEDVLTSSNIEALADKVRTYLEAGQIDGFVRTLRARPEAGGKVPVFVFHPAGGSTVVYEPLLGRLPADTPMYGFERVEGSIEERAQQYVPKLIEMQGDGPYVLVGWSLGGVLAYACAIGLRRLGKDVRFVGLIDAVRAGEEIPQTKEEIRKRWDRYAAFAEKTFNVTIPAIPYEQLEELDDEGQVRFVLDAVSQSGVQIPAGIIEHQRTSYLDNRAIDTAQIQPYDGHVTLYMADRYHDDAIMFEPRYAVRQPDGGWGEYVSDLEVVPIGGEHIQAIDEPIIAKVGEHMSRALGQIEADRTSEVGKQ

Compound | IC50
Cc1cccc(-n2nnnc2C(C)(C)Nc2ccccc2C)c1 | 13.8 µM and 11.7 µM
Cc1ccccc1S(=O)(=O)N[C@@H]1CC[C@@H](N2CCNC(=O)C2)[C@@H]1O | > 100 µM
CN(C)C(=O)c1cn[nH]c1C1(C)CCN(c2ncccn2)CC1 | > 100 µM
CC(C)NC(=O)[C@@H]1CN(C(=O)C2CC2)C[C@]12Cc1ccccc1C(=O)N2 | > 100 µM
CC(=O)N1CCCC1c1ccc(Br)cn1 (centres undefined) | > 100 µM
Cc1ccc2nc(C(=O)N(C)[C@@H]3CC[C@@H](N4CCCC4)[C@@H]3O)cn2c1 | > 100 µM
Cc1cc(C)n(-c2nc(C(=O)NCCN3CCC(C)CC3)cs2)n1 | > 100 µM
Cc1ncc(CN)c(-c2cn(C)c3ccccc23)n1 | 89.1 µM and > 100 µM
Cc1n[nH]c(C)c1CCC(=O)NCC1(O)CCN(c2ccccn2)C1 (centres undefined) | > 100 µM
Nc1nccnc1CC1CCCN(Cc2ccnc3ccccc23)C1 (centres undefined) | > 100 µM
Cc1cc(C2CCCCN2C(=O)c2ccsc2)nc2nccn12 (centres undefined) | > 100 µM
O=C(CCc1cc(Cl)no1)N1CCC(c2cc3ncccc3cn2)CC1 | > 100 µM
CCc1nnc(Nc2cccc(C3CCN(C(C)=O)CC3)n2)s1 | > 100 µM
CNc1cncc(C2CCCN2c2cc(C)ncn2)n1 (centres undefined) | 20.5 µM and 30.5 µM
CS(=O)(=O)N1CCCC1c1cccc(Cc2ccccc2F)n1 (centres undefined) | > 100 µM
Cc1nnsc1C(=O)N1CC[C@H](c2ccccc2)[C@@H]2[C@H]1CCCCN2C | > 100 µM
Cc1ccc2cc(CNCCCN3CCOCC3)c(=O)[nH]c2c1C | > 100 µM
CC(C)(C)C(=O)N1CCC(n2nc(-c3ccco3)ccc2=O)CC1 | > 100 µM
Cc1ccc(CN2CCCC(c3nn(C)c4nccnc34)C2)s1 (centres undefined) | > 100 µM
Cc1cc(-c2cnn(CCNC(=O)c3snnc3C)c2C2CC2)on1 | > 100 µM
Cc1cc(C)c2cc(CNCc3cccnc3)c3nn(C)c(=O)n3c2c1 | 59.1 µM
CNc1cncc(C2CCCN2C(=O)Cn2c(=O)oc3ccccc32)n1 (centres undefined) | 30.2 µM and > 57.5 µM
CCc1cccc(C)c1NC(=O)C1CC(=O)N(Cc2ccccn2)C1 (centres undefined) | > 100 µM
CC(C)(C)c1nc(CN(CCC2CCCCC2)CC(N)=O)no1 | > 100 µM

Compound | IC50
Cc1ccc(C)c(OC2CCN(C(=O)CNc3ccccc3Cl)CC2)c1 | 10.7 µM and 12.7 µM
Cc1nc(CN(C)C(=O)NC(C)c2ccc3c(c2)OCCO3)cs1 (centres undefined) | > 100 µM
CS(=O)(=O)CCCSc1n[nH]c(-c2ccc3c(c2)CCC3)n1 | 5.44 µM and 19.5 µM
N#Cc1c(N2CCCN(C3CCOCC3)CC2)nc2ccccn12 | > 100 µM
Cc1cccc(OC2CCN(c3nccnc3C#N)CC2)n1 | 42.2 µM and 46 µM
CC(Nc1cnn(C)c(=O)c1Cl)c1ccc(F)c(F)c1 (centres undefined) | > 100 µM
O=C(Nc1cc(CSCCO)ccn1)c1ccc(Cl)o1 | > 100 µM and 98.1 µM
Cc1cc(NCc2cccc(C#N)c2)ccc1Br | 20.6 µM and 18 µM
CC(NC(=O)N1CCC(CO)CC1)c1csc2ccccc12 (centres undefined) | > 100 µM
Cc1cccc(COc2ccc(NC(=O)C(C)NC(N)=O)c(C)c2)c1 (centres undefined) | > 100 µM
NC(=O)CCSc1ccccc1NCc1ccc(Cl)s1 | 6.92 µM and 6.81 µM
COc1ccccc1N1CCC(CNS(=O)(=O)c2cccs2)C1 (centres undefined) | 10.3 µM and 4.51 µM
Cc1nc(-c2ccc(Cl)s2)sc1C(=O)N(C)CC(N)=O | 30.9 µM and 43.8 µM
NC(=O)N1CCCN(CCc2nc(-c3cccc(Cl)c3)no2)CC1 | > 100 µM
Cc1cccc(C(C)CNS(=O)(=O)CCCC#N)c1 (centres undefined) | > 100 µM
CC(C)N1Cc2cccc(NCC(=O)N(C)C3CCCCC3)c2C1 | > 100 µM
O=C(COCc1ccccc1Cl)N1CCN(c2ccc(Br)cn2)CC1 | 26.1 µM and 19.2 µM
COc1ccc(C2CCCN2C(=O)c2cc3c([nH]c2=O)CCC3)cc1 (centres undefined) | 31.9 µM and 34.5 µM
CNC(=O)c1cnc(/C=C/c2cc(OC)cc(OC)c2)s1 | 29.1 µM and 11 µM
CCOCC1CN(C(=O)c2cccs2)Cc2cnn(CC3CC3)c21 (centres undefined) | > 100 µM
CN(C)c1nccc(-c2c[nH][nH]c2=O)n1 | > 100 µM
Cc1csc2ncc(-c3ccnc(N4CCCC4)n3)c(=O)n12 | > 100 µM
COc1ccc2[nH]cc(-c3ccnc(N4CCC(C)CC4)n3)c2c1 | 33.7 µM and 30 µM
CC[C@H](C)[C@H](N)C(=O)Nc1nc(-c2cnc(N(C)C)nc2)cs1 | > 100 µM

Compound | IC50
Cc1cn2c(=O)c(-c3ccnc(N4CCC[C@@H]4CO)n3)cnc2s1 | > 100 µM
CS(=O)(=O)NCc1cc(-c2cc(F)cc(F)c2)nc(N2CC[C@H](O)C2)n1 | > 100 µM
c1ccc2c(c1)CN(c1ncnc3sc4c(c13)CCNC4)CCO2 | > 100 µM
CC(=O)c1ccc(N2CCCC(CO)(CCc3ccccc3)C2)nc1 (centres undefined) | 72.2 µM and 69.8 µM
COCCc1noc(-c2cn(CCc3ccccc3)nn2)n1 | 20.8 µM and 8.65 µM
CCNc1ncc(C(=O)N2CCc3c(nc(C)nc3N(C)C)C2)cn1 | > 100 µM
Cc1n[nH]c(C)c1CCN(C)c1ccc(-c2nc(C3CC3)no2)cn1 | > 100 µM
C[C@H](NC(=O)c1cccc(CCC(C)(C)O)c1)C(N)=O | > 100 µM
Cc1ccc(C(=O)N2CCC3(CC2)c2ccccc2[C@@H](N)[C@@H]3O)c(=O)[nH]1 | > 100 µM
CN(C)C[C@@H]1[C@H]2CN(C(=O)c3cc(=O)[nH]c4ccc(F)cc34)C[C@@H]12 | 98.5 µM and > 100 µM
N#Cc1cccc(N2CCCC(CO)(CCOc3ccccc3)C2)n1 (centres undefined) | 34.6 µM and 6.67 µM
CC(C)c1nc(CN2CCc3onc(-c4cccc(F)c4)c3C2)no1 | > 100 µM
O=c1[nH]c2cc3c(cc2cc1CN1CCCC1c1ccccn1)OCO3 (centres undefined) | > 100 µM and 70.3 µM
CCC[C@H]1CN(S(C)(=O)=O)C[C@@H]1NC(=O)c1ccc(COC)cc1 | > 100 µM
COc1cccc(C(=O)N2CCc3c(nc(N)[nH]c3=O)C2)c1C | > 100 µM
Cc1n[nH]c(SCC(=O)N2C[C@H]3CC[C@@H]2CN(c2ncccn2)C3)n1 | > 100 µM
COc1cccc(-c2noc(-c3ccc(NCC(C)C)nc3)n2)c1OC | 15.7 µM and 26.8 µM
COCC1CCN(C(=O)c2cc(-c3ccco3)nc3c(Cl)cccc23)C1 (centres undefined) | 34.6 µM and > 100 µM
CN1CC2(CCCN(Cc3nnc(-c4ccco4)o3)CC2)OC1=O (centres undefined) | > 100 µM
COc1cccc(N2CCN(C(=O)C(O)c3ccccc3Cl)CC2=O)c1 (centres undefined) | > 100 µM
CC1(C(=O)NCc2cccnc2Oc2ccc(F)c(F)c2)CCCNC1 (centres undefined) | > 100 µM
CCOc1ccc2nc(CN3CCOC(CN)C3)ccc2c1 (centres undefined) | > 100 µM
c1cnc(N2CCC3(CCCN(CC4CCCCC4)C3)C2)cn1 (centres undefined) | > 100 µM
CCC(C)Nc1ccc(-c2nc(-c3cccc(OC)c3OC)no2)cn1 (centres undefined) | 28.7 µM and 14 µM

Compound | IC50
Nc1cc(C(=O)NCC2CCN(Cc3ccncc3F)C2)ccn1 (centres undefined) | > 100 µM
Cc1ccc(-c2cc(C(=O)NCCCc3csc(N)n3)[nH]n2)s1 | 9.27 µM and 17 µM
O=C(O)[C@]12CCCN(Cc3ccccn3)[C@@H]1CCN(c1cnccn1)C2 | > 100 µM
N#Cc1cccnc1N1CCCC(CO)(Cc2cccc(Cl)c2)C1 (centres undefined) | 26.7 µM and 23.5 µM
Cn1cc(-c2ccnc(NCC3CCN(Cc4ccccc4)C3)n2)cn1 (centres undefined) | > 100 µM and 60.6 µM
COCCN1CCCC2(CCN(c3nccnc3N(C)C)C2)C1=O (centres undefined) | > 100 µM
CCN1CCC(N[C@@H]2CC[C@@H]2NC(=O)Cc2csc(C)n2)CC1 | > 100 µM
N#Cc1cccc(N2CCC(CO)(CCOc3ccccc3)CC2)n1 | 48.2 µM and 33.8 µM
O=C(O)C1c2nc[nH]c2CCN1Cc1ccccc1-c1ccccc1 (centres undefined) | > 100 µM
Cc1nn(C)cc1-c1ccnc(N(C)Cc2ccoc2)n1 | > 100 µM
CCOCCN1CCN([C@@H]2c3ccccc3C3(CCNCC3)[C@H]2O)CC1 | > 100 µM
CCOCCC(=O)N1CCc2cccc(S(=O)(=O)N3CCOCC3)c2C1 | > 100 µM and 20.4 µM
N#Cc1cccc(N2CCC(CO)(CCCc3ccccc3)CC2)n1 | > 18.6 µM and 25.5 µM
CCN1CC(C(=O)N2CCN(c3nsc4ccccc34)CC2)CCC1=O (centres undefined) | 90.7 µM and 73 µM
O=C(c1cnccn1)N1C[C@@H]2CC[C@H](C1)N(S(=O)(=O)c1cccnc1)C2 | > 100 µM
CSc1ccc2cc(CN(C)CCO)c(=O)[nH]c2c1 | 31.4 µM
OCC1(CCOc2ccccc2)CCCN(c2ccc(Cl)cn2)C1 (centres undefined) | 29 µM and 32.3 µM
CSCc1ccc(N2CCC(C(O)Cc3ccccc3)CC2)nc1 (centres undefined) | > 100 µM
O=S(=O)(c1c(N2CCCCC2)ccc2nonc12)N1CCCCC1 | 26.1 µM and 29.2 µM
O=c1[nH]c(NC2CCCC2)nc2nccc(-c3cccs3)c12 | 8.33 µM and 21.7 µM
COc1cccc(-c2cc(NCC(=O)O)nc3[nH]ccc23)n1 | 29.9 µM and 35.7 µM
COc1ccc2c(C(=O)N(C)C)cc(-c3cnc(N)nc3)nc2c1 | 30.4 µM and 38.7 µM
CCn1cc(-c2cc(C(F)F)n3nc(CC(=O)O)nc3n2)cn1 | 15.7 µM and 16.4 µM
NC(=O)CSc1nccc(-c2ccc3c(c2)OCO3)n1 | 20 µM and 18.9 µM

Compound | IC50
Cn1cc(-c2cc(C(F)F)n3nc(CCC(=O)O)nc3n2)cn1 | 12 µM and 19.8 µM
CCOCC1CCCN(C(=O)NCc2ccc(-c3ccn[nH]3)cc2)C1 (centres undefined) | > 100 µM
CCc1nnc(CN2CCOC(Cn3cc(C)cn3)C2)o1 (centres undefined) | > 100 µM
O=C(c1cnc2c(cnn2C2CCCC2)c1)N1CCN(CCO)CC1 | > 100 µM
CCN(Cc1nc2c(cnn2C)c(=O)[nH]1)c1ccccc1 | > 100 µM
COCc1nc(C(=O)N2CCCC2c2ccc(OC)cc2)cs1 (centres undefined) | > 100 µM
O=C(c1cc2cc(F)ccc2[nH]1)N1CCC(Nc2ccc(F)cc2)CC1 | > 100 µM and 12.6 µM
CC(C)(C)c1cc(NC(=O)CN2CCC(N3CCNC3=O)CC2)on1 | > 100 µM
O=C(O)c1csc(S(=O)(=O)Nc2cccc(OCC(F)(F)F)c2)c1 | 36 µM and 20.4 µM
Cc1nc(-c2ccc(Cl)s2)sc1C(=O)NCCS(N)(=O)=O | 33.3 µM and 21 µM
Cn1ccc(C(=O)NC2CCN(c3ncccn3)CC2)cc1=O | > 100 µM
Cc1cccc(-c2ccc(C(=O)NCC(C)(C)C(N)=O)c(=O)[nH]2)c1 | 25 µM and 32 µM
CC(O)CN1CCC(CNCc2cccc(C(N)=O)c2)CC1 (centres undefined) | > 100 µM
Cc1ccc(CNC(=O)NCCCn2nc3ccccn3c2=O)s1 | > 100 µM
CC(NC(=O)Nc1cccnc1N1CCCC1)c1nncn1C (centres undefined) | > 100 µM
Cc1ccc(-c2ncc(C(=O)NCCNc3ncccn3)s2)c(C)c1 | 12 µM and 14.8 µM
CC(NC(=O)CN(C)S(C)(=O)=O)c1nnc2n1CCCCC2 (centres undefined) | > 100 µM
Cn1ccc(C(=O)NCc2cccc(CN3CCCC3)c2)cc1=O | > 100 µM
O=C(C1CC1)N1CCc2ccccc2C12CCNCC2 | > 100 µM
Cc1noc([C@@H]2C[C@H]3OCC[C@H]3N(S(=O)(=O)c3cccnc3)C2)n1 | > 100 µM
CC(C)OCc1ncn2c1CN(Cc1nccs1)CCC2 | > 100 µM
Cn1ncc2c1CN(Cc1cccnc1)CC2COCC1CC1 (centres undefined) | > 100 µM
CCN(CC)C(=O)c1cc(C2CCCN2C)ccn1 (centres undefined) | > 100 µM
